This is an account of results in ChEMBL document CHEMBL1201862, “PubChem BioAssay data set” (2004).

The target in assay [1] is T1, G-protein coupled receptor 35 (Homo sapiens, UniProt Q9HC97). Nature of the assay: inhibition of zaprinast-stimulated GPR35 beta-arrestin translocation – imaging, U2OS, beta-arrestin-GFP, zaprinast agonist, primary screen (AID 2058).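 Further: antagonist potency meaning inhibition of agonist-induced arrestin redistribution.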 The format is functional.
Assay [2] concerns the target T1, G-protein coupled receptor 35. Description: SAR Analysis for the identification of Selective Antagonists of ERK1/2 Activity in GPR35-Overexpressing U2OS Cells. [Related pubchem assays: 2079, 2058 ]. It is filed as functional, cell-based.
For assay [3], the target named is G-protein coupled receptor 55 (Homo sapiens, UniProt Q9Y2T6). Description: blockers of GPR55 signalling, imaged – imaging, image-based, counter-screen for GPR35 antagonist project, SAR follow-up (AID 2397). The format is functional.
Sequence of G-protein coupled receptor 55 (Q9Y2T6 whole entry): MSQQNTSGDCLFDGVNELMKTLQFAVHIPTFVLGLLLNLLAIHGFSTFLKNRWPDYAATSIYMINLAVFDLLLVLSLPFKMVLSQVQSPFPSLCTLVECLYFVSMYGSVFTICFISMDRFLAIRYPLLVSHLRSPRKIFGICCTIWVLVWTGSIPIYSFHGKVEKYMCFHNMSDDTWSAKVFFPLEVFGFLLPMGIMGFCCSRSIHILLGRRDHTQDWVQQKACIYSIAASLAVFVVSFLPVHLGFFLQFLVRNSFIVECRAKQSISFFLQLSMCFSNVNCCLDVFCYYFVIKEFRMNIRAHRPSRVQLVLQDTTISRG
The target of assay [4] is T2, Replicative DNA helicase DnaB (Mycobacterium tuberculosis, UniProt P9WMR3).
T2 sequence (P9WMR3 whole entry): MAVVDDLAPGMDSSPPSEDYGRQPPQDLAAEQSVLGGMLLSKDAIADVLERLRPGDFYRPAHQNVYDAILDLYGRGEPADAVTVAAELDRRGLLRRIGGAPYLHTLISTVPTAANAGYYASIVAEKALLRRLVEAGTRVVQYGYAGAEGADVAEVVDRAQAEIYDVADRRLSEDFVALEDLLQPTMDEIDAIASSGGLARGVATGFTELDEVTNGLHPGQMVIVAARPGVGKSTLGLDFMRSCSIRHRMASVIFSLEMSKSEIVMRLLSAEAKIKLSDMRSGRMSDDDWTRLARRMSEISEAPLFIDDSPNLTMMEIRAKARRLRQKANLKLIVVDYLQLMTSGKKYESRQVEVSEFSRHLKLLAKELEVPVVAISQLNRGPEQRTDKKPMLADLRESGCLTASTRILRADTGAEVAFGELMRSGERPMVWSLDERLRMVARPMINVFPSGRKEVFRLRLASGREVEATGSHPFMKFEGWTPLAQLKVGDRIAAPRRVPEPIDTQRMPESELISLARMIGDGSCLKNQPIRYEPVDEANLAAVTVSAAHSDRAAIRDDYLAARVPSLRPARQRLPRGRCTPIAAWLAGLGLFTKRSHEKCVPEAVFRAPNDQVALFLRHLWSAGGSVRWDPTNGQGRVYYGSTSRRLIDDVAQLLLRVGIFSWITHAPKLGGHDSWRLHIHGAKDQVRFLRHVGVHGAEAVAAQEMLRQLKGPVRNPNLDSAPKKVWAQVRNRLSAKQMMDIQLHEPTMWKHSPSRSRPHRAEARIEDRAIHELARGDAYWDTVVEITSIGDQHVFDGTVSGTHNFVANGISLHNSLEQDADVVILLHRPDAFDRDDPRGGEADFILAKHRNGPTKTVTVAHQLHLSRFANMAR
Nature of the assay: DnaB intein splicing inhibitors, dose response, biochemical, cell-free fluorescence (AID 449749). The format is functional.

The target in a further assay is T3, Protein RecA (Mycobacterium tuberculosis, UniProt P9WHJ3).
T3 sequence (P9WHJ3 whole entry): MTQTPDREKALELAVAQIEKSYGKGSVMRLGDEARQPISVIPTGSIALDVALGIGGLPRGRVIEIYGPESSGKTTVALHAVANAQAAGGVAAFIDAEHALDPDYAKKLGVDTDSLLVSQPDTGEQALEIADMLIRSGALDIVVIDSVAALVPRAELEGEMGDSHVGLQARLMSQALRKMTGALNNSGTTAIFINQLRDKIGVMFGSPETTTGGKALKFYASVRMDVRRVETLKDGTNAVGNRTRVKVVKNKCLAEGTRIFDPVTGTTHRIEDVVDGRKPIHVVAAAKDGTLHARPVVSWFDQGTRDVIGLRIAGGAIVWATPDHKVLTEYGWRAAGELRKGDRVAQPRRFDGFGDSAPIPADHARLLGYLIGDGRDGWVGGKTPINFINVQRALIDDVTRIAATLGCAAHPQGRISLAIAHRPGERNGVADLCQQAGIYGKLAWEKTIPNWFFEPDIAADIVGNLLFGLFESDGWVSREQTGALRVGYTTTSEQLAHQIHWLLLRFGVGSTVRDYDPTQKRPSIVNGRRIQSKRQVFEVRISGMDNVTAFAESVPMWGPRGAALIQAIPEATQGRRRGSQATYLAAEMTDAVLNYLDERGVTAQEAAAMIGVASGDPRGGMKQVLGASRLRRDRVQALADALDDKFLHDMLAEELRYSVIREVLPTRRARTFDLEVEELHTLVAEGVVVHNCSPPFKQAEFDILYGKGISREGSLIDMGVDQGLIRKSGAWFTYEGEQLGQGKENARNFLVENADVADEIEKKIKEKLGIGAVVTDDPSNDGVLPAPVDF
Nature of the assay: Fluorescence Cell-Free Homogeneous Dose Retest to Identify Inhibitors of RecA-Intein Splicing Activity. [Related pubchem assays (depositor defined):AID2097, AID2223, AID489010, AID492950]. It is filed as functional.

The next assay concerns the target T4, Caspase-3 (Homo sapiens, UniProt P42574).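 Further: Dose-response selectivity test against caspase-3 for candidate inhibitors of sentrin-specific proteases (SENPs).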
T4 sequence (P42574 whole entry): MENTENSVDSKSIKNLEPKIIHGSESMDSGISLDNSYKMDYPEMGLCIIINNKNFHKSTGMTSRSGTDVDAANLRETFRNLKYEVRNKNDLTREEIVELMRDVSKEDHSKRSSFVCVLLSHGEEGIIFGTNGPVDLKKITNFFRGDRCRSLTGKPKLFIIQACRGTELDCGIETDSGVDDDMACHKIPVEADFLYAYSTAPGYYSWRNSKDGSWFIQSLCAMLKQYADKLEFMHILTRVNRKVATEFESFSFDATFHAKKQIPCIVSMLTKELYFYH
It is filed as functional.

For assay [5], the target named is T5, Sentrin-specific protease 7 (Homo sapiens, UniProt Q9BQF6).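 Further: Luminescence-based dose-response confirmation of ultra-high-throughput screening hits, measuring inhibition of SENP7.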
T5 sequence (Q9BQF6 whole entry): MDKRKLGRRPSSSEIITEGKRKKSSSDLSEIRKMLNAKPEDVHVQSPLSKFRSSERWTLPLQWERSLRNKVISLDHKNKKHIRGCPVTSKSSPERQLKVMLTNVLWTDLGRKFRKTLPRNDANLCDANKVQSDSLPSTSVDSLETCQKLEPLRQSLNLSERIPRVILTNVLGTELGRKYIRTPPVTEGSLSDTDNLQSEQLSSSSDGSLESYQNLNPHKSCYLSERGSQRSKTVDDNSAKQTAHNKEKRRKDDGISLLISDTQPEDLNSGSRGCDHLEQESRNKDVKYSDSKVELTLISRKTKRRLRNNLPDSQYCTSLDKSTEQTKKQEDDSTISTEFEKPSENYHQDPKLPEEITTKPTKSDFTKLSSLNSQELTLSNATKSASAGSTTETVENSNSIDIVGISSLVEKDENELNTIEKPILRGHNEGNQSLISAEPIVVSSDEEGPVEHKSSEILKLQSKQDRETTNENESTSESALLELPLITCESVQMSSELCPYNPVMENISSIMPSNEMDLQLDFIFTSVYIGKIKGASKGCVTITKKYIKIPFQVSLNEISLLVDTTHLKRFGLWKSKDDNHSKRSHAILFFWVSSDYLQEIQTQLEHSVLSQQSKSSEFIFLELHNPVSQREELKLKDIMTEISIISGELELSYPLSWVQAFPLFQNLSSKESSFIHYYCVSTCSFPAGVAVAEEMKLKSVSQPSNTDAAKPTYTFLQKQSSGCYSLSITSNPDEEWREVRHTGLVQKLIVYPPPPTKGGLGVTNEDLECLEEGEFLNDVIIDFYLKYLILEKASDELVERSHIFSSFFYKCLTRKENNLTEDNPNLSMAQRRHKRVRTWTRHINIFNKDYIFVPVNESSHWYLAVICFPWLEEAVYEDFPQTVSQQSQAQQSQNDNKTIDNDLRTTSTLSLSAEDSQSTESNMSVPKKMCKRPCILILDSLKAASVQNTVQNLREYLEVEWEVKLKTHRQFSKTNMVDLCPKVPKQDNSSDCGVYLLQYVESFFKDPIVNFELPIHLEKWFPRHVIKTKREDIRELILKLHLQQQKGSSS
The format is functional.

The target in assay [6] is T6, Sentrin-specific protease 6 (Homo sapiens, UniProt Q9GZR1).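 Further: Luminescence-based dose-response confirmatory assay of SENP6 inhibition, following up an ultra-high-throughput screen.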
T6 sequence (Q9GZR1 whole entry): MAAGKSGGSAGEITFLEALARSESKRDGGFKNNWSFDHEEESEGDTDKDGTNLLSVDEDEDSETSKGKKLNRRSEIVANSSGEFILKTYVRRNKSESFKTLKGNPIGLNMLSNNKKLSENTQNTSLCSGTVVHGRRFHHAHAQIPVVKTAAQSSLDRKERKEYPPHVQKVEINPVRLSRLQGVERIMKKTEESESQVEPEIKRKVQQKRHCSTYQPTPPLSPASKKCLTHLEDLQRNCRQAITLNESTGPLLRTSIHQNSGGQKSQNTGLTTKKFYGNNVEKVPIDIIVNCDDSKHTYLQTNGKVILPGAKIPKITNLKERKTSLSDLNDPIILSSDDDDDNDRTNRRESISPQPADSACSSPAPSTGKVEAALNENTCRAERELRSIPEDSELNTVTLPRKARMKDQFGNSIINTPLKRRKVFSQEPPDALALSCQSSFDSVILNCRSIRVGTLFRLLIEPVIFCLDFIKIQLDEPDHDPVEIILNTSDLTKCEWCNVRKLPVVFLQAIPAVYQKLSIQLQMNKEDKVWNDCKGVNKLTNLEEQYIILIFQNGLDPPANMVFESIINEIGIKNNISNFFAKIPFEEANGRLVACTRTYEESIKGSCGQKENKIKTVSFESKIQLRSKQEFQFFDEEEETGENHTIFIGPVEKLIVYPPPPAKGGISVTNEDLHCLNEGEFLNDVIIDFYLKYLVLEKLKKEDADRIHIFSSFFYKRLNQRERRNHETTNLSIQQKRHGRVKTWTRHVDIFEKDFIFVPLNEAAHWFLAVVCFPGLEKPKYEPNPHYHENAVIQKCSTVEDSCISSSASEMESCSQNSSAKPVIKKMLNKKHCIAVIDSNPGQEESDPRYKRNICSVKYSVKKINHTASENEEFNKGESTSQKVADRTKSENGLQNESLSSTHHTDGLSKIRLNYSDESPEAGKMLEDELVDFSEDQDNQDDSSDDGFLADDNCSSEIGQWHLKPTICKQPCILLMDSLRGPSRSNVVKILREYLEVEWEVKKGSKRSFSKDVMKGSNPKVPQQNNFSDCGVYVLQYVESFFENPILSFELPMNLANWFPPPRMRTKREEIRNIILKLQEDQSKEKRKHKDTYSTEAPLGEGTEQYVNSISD
It is filed as functional.

Assay [7] has as its target T7, Sentrin-specific protease 8 (Homo sapiens, UniProt Q96LD8).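 Further: luminescence read-out of SENP8 inhibition, dose-response confirmation following an ultra-high-throughput screen.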
T7 sequence (Q96LD8 whole entry): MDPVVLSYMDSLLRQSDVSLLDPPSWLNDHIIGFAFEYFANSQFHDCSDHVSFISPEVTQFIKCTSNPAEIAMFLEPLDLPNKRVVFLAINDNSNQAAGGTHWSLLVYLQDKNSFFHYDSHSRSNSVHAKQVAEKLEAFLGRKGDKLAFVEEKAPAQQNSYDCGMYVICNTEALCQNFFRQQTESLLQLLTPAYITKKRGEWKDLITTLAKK
The format is functional.

Assay [8] is described as follows: decrease of insulin promoter-GFP reporter – imaging, high-content screening, mouse beta cells (AID 1628). The format is functional. The settings on record: MIN6.
Assay [9] is described as follows: MIN6 cell viability loss – mouse insulinoma, cytotoxicity control, dose response (AID 2122).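 Further: confirmatory high-throughput counterscreen run to flag cytotoxic compounds.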 It is filed as functional.
Assay [10] has as its target Delta-type opioid receptor (Homo sapiens, UniProt P41143). Nature of the assay: Counterscreen for agonists of heterodimerization of the mu 1 (OPRM1) and delta 1 (OPRD1) opioid receptors: Luminescence-based cell-based high throughput dose response assay to identify agonists of OPRD1 homodimerization. [Related pubchem assays (depositor defined):AID504326, AID504355, AID504692, AID504904, AID504905]. The format is functional.

Another assay deals with Mu-type opioid receptor (Homo sapiens, UniProt P35372). Description: Counterscreen for agonists of heterodimerization of the mu 1 (OPRM1) and delta 1 (OPRD1) opioid receptors: Luminescence-based cell-based high throughput dose response assay to identify agonists of OPRM1 homodimerization. It is filed as functional.
Sequence of Mu-type opioid receptor (P35372 whole entry): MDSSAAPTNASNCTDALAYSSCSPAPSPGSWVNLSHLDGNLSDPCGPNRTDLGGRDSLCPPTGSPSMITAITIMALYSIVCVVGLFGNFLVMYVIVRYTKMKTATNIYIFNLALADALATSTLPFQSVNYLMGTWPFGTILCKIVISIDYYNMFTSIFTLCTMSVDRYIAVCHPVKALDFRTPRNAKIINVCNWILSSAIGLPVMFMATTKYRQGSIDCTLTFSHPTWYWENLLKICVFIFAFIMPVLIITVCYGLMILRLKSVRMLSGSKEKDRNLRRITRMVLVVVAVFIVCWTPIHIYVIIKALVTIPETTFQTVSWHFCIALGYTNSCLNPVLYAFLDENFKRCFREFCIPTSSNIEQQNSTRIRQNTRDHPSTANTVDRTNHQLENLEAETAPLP
Assay [11] has as its target 5-hydroxytryptamine receptor 5A (Homo sapiens, UniProt P47898). Description: Counterscreen for agonists of OPRM1-OPRD1 heterodimerization: luminescence-based cell-based high throughput dose response assay to identify agonists of 5-hydroxytryptamine (serotonin) 5A receptor (HTR5A). [Related pubchem assays (depositor defined):AID504326, AID504355, AID504692, AID504904, AID504905]. It is filed as functional.

The nature of assay [12]: NIH-3T3 fibroblast cytotoxicity, dose response, cytotoxicity control, cell-based, fluorescence, Alamar Blue, secondary assay (AID 2327).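 Further: NIH-3T3 mouse fibroblasts cultured with fluconazole at 8 µg/mL.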 It is filed as functional.
A short description of assay [13]: fluconazole-exposed Candida albicans growth modulators – fluorescence, retest, confirmation (AID 2467). It is filed as functional, cell-based.
Assay [14] can be described thus: Trypanosoma cruzi growth suppression in host cells – NIH3T3 host cells, beta-gal luminescence, confirmation (AID 2044).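 Further: intracellular parasites grown in NIH/3T3 mouse fibroblasts as host cells; luminescent beta-galactosidase reporter signal from transgenic T. cruzi replicating inside host cells; inhibitors lower the luminescence signal.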 The format is functional, cell-based.
A short description of assay [15]: NIH3T3 cell viability loss – ATP luminescence, mouse fibroblasts, counter-screen, dose response (AID 2010).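 Further: cells exposed to compound for about 90 hours before reading.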 The format is functional, cell-based.

Activity calls are given as the source filed them. Where only a bound is given, the exact number is not on record here.

T1 sequence (Q9HC97 whole entry): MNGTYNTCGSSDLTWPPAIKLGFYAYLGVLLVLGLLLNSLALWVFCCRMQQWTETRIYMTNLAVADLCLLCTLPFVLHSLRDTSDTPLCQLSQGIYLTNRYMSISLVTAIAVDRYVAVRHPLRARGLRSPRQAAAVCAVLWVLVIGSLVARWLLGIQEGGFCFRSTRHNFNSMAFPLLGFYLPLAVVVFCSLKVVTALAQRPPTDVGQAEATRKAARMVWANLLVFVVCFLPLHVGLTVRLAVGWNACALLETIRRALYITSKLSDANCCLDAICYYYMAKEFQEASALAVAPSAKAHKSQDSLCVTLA
Sequence of 5-hydroxytryptamine receptor 5A (P47898 whole entry): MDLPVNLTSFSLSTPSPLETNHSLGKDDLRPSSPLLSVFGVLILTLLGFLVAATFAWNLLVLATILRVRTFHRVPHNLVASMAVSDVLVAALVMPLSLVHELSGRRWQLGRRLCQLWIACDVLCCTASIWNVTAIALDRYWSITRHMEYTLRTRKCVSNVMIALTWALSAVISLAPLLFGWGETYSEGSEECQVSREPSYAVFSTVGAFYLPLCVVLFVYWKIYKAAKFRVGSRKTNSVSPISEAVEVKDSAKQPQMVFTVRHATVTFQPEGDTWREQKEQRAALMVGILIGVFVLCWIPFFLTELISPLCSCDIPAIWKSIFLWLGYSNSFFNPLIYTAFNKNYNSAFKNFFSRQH
Sequence of Delta-type opioid receptor (P41143 whole entry): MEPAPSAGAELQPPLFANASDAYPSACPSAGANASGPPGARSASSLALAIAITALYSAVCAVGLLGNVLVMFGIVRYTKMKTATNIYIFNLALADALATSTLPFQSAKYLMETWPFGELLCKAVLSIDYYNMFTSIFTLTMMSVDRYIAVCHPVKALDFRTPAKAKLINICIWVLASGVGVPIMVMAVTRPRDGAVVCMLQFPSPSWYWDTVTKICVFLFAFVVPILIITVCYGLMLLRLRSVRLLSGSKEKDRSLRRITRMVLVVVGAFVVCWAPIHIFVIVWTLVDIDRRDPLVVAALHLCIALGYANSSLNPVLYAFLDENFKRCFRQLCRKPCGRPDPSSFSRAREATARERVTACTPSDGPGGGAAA

Take `O=C(CCCN1C(=O)S/C(=C\C=C\c2ccccc2)C1=O)Nc1ccc(C(=O)O)cc1`: the IC50 in assay [1] is 1.26 µM (active); in assay [2], 9.54 µM (active); in assay [3], 12.9 µM (inactive). Moreover, in assay [4], the AC50 is 39.2 µM (active). In addition, the EC50 on Protein RecA is 51.2 µM (active).

For `O=C(CCCN1C(=O)S/C(=C/c2ccccc2)C1=S)Nc1ccc(C(=O)O)cc1`, the IC50 in assay [1] was 1.51 µM (active); in assay [2], 1.45 µM (active); at Caspase-3 it was 23.5 µM (active); in assay [5], 21.3 µM (active); in [6], 23.7 µM (active); in assay [7], 29.8 µM (active). The IC50 in assay [3] was > 32 µM (inactive).

`CCOc1ccc(C(O)Cn2c(=N)n(CCN3CCCCC3)c3ccccc32)cc1` (stereo not drawn): the IC50 was 2.55 µM (active) in assay [8] and 5.18 µM (active) in assay [9].

Consider `COc1ccc(-n2c3c(cc(C(=O)NNc4ccccc4C)c2=O)C(=O)CC(C)(C)C3)cc1`, for which the EC50 was > 92.5 µM (inactive) in [10], 14.5 µM (inactive) at Mu-type opioid receptor and > 92.5 µM (inactive) in assay [11].

On to `CCC(C)OC(=O)C[N+](C)(C)CCOC1CC2CCC1(C)C2(C)C` (stereo not drawn), for which the EC50 in [12] was > 150 µM (inconclusive); in assay [13], 4.36 µM (active); in [14], 0.341 µM (active); in assay [15], > 60 µM (not active). Besides, the half-inhibitory concentration (IC50) was 0.418 µM (active) in assay [8] and < 0.25 µM (active) in assay [9].
